The results in this text go back to ChEMBL document CHEMBL3865793, “Non-specific binding sites help to explain mixed inhibition in mushroom tyrosinase activities” (Eur J Med Chem, 2016).

Active and inactive are the calls of the source. No cut-off for these calls is given here.

For data set [1], the target named is T1, Mushroom tyrosinase (Agaricus bisporus) (UniProt O42713+Q00024+C7FF04+C7FF05). The data set is described as follows: Inhibition of cresolase activity of mushroom tyrosinase at 0 to 10.5 uM using 23 to 50.05 uM of 4-[(4-Methylphenyl) azo]-phenol as substrate.
Data set [2] has as its target T1, Mushroom tyrosinase (Agaricus bisporus). The data set is described as follows: Inhibition of cresolase activity of mushroom tyrosinase at <5 uM using 4-[(4-Methylphenyl) azo]-phenol as substrate.
Data set [3] has the same target. The data set is described as follows: Mixed type activation of cresolase activity of mushroom tyrosinase at 5 to 10.5 uM using 4-[(4-Methylphenyl) azo]-phenol as substrate by Lineweaver-Burk plot analysis.
The target is the same in data set [4]. The data set is described as follows: Mixed type activation of cresolase activity of mushroom tyrosinase using 4-[(4-Methylphenyl) azo]-phenol as substrate by Dixon plot analysis.
For data set [5] the target is unchanged. The data set is described as follows: Activation of cresolase activity of mushroom tyrosinase at >5 uM after 15 mins using 4-[(4-Methylphenyl) azo]-phenol as substrate.
For data set [6] the target is unchanged. The data set is described as follows: Activation of cresolase activity of mushroom tyrosinase assessed as activation constant after 15 mins using 4-[(4-Methylphenyl) azo]-phenol as substrate.
The target is the same in data set [7]. The data set is described as follows: Activation of cresolase activity of mushroom tyrosinase assessed as inverse of activation constant after 15 mins using 4-[(4-Methylphenyl) azo]-phenol as substrate.
Data set [8] shares this target. The data set is described as follows: Activation of cresolase activity of mushroom tyrosinase at <= 10 uM after 15 mins using 4-[(4-Methylphenyl) azo]-phenol as substrate relative to untreated control.
The target is the same in data set [9]. The data set is described as follows: Activation of cresolase activity of mushroom tyrosinase at 18 uM using 4-[(4-Methylphenyl) azo]-phenol as substrate by Dixon plot analysis.
Data set [10] has the same target. The data set is described as follows: Activation of cresolase activity of mushroom tyrosinase at <150 uM using 4-[(4-Methylphenyl) azo]-phenol as substrate measured after 15 mins by spectrophotometric method.
Data set [11] shares this target. The data set is described as follows: Inhibition of cresolase activity of mushroom tyrosinase at >150 uM using 4-[(4-Methylphenyl) azo]-phenol as substrate measured after 15 mins by spectrophotometric method.
The target is the same in data set [12]. The data set is described as follows: Inhibition of cresolase activity of mushroom tyrosinase at 0 to 450 uM using 18 to 61 uM of 4-[(4-Methylphenyl) azo]-phenol as substrate.
For data set [13] the target is unchanged. The data set is described as follows: Activation of cresolase activity of mushroom tyrosinase at 50 to 150 uM using 4-[(4-Methylphenyl) azo]-phenol as substrate by Lineweaver-Burk plot analysis.
The target in data set [14] is Mushroom tyrosinase (Agaricus bisporus, UniProt O42713+Q00024+C7FF04+C7FF05). The data set is described as follows: Inhibition of cresolase activity of mushroom tyrosinase using 4-[(4-Methylphenyl) azo]-phenol as substrate measured after 15 mins by spectrophotometric method.
The target in data set [15] is T1, Mushroom tyrosinase (Agaricus bisporus). The data set is described as follows: Activation of cresolase activity of mushroom tyrosinase assessed as dissociation constant for substrate after 15 mins using 4-[(4-Methylphenyl) azo]-phenol as substrate.
The target is the same in data set [16]. The data set is described as follows: Activation of cresolase activity of mushroom tyrosinase at <= 150 uM after 15 mins using 4-[(4-Methylphenyl) azo]-phenol as substrate relative to untreated control.
Data set [17] has as its system O=C(O)/C=C/c1ccccc1. The data set is described as follows: (§1) Activation of cresolase activity of mushroom tyrosinase assessed as Vmax after 15 mins using 4-[(4-Methylphenyl) azo]-phenol as substrate. The conditions noted are these: Agaricus bisporus.
The test system of data set [18] is O=C(O)c1ccccc1C(=O)O. The description is as §1. The conditions noted are these: Agaricus bisporus.

Mushroom tyrosinase (Agaricus bisporus) (from UniProt O42713+Q00024+C7FF04+C7FF05), sequence (C7FF05 whole entry, looked up): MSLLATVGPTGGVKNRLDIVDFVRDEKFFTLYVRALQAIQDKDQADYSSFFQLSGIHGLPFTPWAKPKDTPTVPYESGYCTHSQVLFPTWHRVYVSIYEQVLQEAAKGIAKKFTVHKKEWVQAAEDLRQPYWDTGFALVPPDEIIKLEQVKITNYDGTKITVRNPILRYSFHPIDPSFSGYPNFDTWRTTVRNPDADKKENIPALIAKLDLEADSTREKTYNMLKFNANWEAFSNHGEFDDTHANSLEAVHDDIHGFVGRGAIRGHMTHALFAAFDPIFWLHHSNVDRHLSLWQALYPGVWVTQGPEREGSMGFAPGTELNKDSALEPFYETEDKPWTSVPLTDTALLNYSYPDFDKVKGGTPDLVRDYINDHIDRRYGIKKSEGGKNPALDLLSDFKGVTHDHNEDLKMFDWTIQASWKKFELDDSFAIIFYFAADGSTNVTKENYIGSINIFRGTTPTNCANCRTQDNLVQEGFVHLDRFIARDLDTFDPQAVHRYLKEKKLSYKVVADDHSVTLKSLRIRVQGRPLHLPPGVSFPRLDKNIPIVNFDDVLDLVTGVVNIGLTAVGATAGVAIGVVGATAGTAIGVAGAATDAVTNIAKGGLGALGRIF
Mushroom tyrosinase (Agaricus bisporus) (from UniProt O42713+Q00024+C7FF04+C7FF05), sequence (C7FF04 whole entry, looked up): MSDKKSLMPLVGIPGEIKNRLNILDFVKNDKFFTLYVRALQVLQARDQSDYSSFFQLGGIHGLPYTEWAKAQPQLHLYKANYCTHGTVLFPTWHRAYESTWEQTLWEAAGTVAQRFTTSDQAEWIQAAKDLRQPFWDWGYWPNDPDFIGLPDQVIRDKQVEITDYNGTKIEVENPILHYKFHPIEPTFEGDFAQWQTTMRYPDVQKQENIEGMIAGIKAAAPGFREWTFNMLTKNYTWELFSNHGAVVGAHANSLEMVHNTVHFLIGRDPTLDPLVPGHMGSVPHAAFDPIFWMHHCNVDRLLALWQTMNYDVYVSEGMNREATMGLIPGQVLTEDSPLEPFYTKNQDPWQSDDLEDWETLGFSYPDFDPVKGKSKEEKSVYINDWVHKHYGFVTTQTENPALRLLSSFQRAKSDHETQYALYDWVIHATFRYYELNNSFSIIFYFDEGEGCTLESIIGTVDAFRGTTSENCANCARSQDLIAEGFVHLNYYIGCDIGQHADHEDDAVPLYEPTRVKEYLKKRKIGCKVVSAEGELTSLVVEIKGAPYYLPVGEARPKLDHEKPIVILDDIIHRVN
Mushroom tyrosinase (Agaricus bisporus) (from UniProt O42713+Q00024+C7FF04+C7FF05), sequence (Q00024 whole entry, looked up): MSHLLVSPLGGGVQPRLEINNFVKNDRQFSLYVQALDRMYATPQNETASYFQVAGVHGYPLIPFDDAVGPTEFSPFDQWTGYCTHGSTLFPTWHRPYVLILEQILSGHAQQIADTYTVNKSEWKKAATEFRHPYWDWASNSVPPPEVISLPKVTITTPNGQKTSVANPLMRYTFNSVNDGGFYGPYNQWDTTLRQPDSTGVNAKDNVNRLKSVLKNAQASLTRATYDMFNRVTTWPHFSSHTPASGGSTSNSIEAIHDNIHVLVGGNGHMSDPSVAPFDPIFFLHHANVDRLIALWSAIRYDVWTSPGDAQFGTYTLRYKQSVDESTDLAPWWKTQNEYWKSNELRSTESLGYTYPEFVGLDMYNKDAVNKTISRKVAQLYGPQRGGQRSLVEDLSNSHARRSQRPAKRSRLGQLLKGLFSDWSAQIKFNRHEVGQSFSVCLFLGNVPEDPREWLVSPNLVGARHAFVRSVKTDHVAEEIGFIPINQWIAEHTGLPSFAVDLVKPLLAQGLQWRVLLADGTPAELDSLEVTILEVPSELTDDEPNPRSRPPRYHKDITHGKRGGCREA
Mushroom tyrosinase (Agaricus bisporus) (from UniProt O42713+Q00024+C7FF04+C7FF05), sequence (O42713 whole entry, looked up): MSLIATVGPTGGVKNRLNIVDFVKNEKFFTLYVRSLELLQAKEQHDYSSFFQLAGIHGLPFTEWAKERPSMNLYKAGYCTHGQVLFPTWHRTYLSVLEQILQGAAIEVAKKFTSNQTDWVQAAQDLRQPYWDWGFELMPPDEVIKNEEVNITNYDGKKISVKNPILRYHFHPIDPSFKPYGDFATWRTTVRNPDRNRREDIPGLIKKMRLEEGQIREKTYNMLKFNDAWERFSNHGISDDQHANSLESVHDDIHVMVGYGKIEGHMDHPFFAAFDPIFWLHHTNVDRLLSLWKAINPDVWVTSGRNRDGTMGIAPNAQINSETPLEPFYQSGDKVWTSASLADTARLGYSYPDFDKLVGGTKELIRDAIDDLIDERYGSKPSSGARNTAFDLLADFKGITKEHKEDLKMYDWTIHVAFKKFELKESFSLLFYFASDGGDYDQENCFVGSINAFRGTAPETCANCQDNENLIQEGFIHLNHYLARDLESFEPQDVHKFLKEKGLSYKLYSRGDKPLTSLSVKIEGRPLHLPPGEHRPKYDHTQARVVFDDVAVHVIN

For `O=C(O)/C=C/c1ccccc1`, the inhibition entry in [1] and in data set [2] was “Active” in each case. Besides, the result in data set [3], in data set [4] and in [5] was Active. In [6], the KA stood at 5.41 µM. Moreover, in data set [7], the Ka came out at 185 mM⁻¹. In addition, in data set [8], the fold change (FC) is 2.

`O=C(O)c1ccccc1C(=O)O` [PHTHALIC ACID]: the outcome in data set [9], in data set [10] and in data set [13] was Active. Further, the inhibition entry in data set [11] and in [12] was “Active” throughout. This compound also returned an IC50 in data set [14] of 271.79 µM. Further, the Ki in data set [14] came out at 100 µM. In addition, in [15], the K worked out at 67.2 µM. Besides, in data set [6], the KA came out at 10.9 µM. Also, the Ka in [7] was 91.3 mM⁻¹. This compound also came in with an Activity in data set [16] of 11 to 23%.

Take “Mushroom tyrosinase (Agaricus bisporus) (from UniProt O42713+Q00024+C7FF04+C7FF05)”: the results for the Vmax in data set [17] and in data set [18] were 7.9 µM/min and 14.5 µM/min, respectively.

The term IC50 denotes the midpoint of a concentration-inhibition curve. A high value points to a need for much substance. One may read the Ki as a measure of affinity in units of concentration, obtained from inhibition or displacement. A word on the Vmax: it is the rate approached at saturating substrate.
